pIC50: −log10 of the molar value.
Tests used:
[1] = target: T1, hFASN enzyme (full length) (Homo sapiens, UniProt P49327); assay: Fatty Acid Synthase (FASN) inhibition scintillation proximity assay; type: biochemical; conditions: for inhibition at 10 µM: read-out: Human FASN % inhibition @ 10 μM, 10 μM test compound; for IC50: read-out: Human FASN pIC50 (converted)
T1 construct: 10 μL hFASN enzyme (full length, 300 ng, purified in house); made in house
How it was run: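 Read-out relies on hydrophobic ³H-palmitate product, formed from ³H-acetyl-CoA and malonyl-CoA, binding streptavidin imaging beads, measured at 610±20 nm after at least 24 h. Full-length enzyme (300 ng) in phosphate buffer pH 7.5 with DTT; eight compound concentrations, 0.01–30 μM.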

[2] = system: A2780 ovarian cells; assay: A2780 ovarian cell proliferation assay in lipid reduced medium, without palmitate (MTT); type: cell-based; conditions: Homo sapiens, A2780, 96 h; read-out: pIC50 A2780 Ovarian Cell, Without Palmitate (converted)
[3] = target: Fatty Acid Synthase Keto-reductase Domain (FASN KR) (Homo sapiens, UniProt P49327); assay: Fatty Acid Synthase keto-reductase domain (FASN KR) inhibition, NADPH oxidation at 340 nm
Method: After 20 minutes incubation at room temperature the plate was measured again (T2).
The decrease in absorbance was calculated as (Absorbance before incubation T1)−(Absorbance following incubation T2).
A plot of Controlmin versus test compound concentration was fitted to a 4-parameter logistic curve using a non-linear least squares regression method.

[4] = system: A2780 ovarian cells; assay: A2780 ovarian cell proliferation assay in lipid reduced medium, with palmitate (MTT); type: cell-based; conditions: Homo sapiens, A2780, 96 h; read-out: pIC50 A2780 Ovarian Cell, With Palmitate (converted)
How it was run: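 In this palmitate-supplemented format, compound dilutions (30 μM down to 0.01 μM) are added to cells in lipid-reduced serum with 25 μM palmitate, 0.2% fatty-acid-free BSA and 0.25% ethanol. After four days (96 h) MTT absorbance at 544 nm is recorded and fitted by minimum sum of squares.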

Fatty Acid Synthase Keto-reductase Domain (FASN KR), sequence (P49327 whole entry, the tested form may be a part): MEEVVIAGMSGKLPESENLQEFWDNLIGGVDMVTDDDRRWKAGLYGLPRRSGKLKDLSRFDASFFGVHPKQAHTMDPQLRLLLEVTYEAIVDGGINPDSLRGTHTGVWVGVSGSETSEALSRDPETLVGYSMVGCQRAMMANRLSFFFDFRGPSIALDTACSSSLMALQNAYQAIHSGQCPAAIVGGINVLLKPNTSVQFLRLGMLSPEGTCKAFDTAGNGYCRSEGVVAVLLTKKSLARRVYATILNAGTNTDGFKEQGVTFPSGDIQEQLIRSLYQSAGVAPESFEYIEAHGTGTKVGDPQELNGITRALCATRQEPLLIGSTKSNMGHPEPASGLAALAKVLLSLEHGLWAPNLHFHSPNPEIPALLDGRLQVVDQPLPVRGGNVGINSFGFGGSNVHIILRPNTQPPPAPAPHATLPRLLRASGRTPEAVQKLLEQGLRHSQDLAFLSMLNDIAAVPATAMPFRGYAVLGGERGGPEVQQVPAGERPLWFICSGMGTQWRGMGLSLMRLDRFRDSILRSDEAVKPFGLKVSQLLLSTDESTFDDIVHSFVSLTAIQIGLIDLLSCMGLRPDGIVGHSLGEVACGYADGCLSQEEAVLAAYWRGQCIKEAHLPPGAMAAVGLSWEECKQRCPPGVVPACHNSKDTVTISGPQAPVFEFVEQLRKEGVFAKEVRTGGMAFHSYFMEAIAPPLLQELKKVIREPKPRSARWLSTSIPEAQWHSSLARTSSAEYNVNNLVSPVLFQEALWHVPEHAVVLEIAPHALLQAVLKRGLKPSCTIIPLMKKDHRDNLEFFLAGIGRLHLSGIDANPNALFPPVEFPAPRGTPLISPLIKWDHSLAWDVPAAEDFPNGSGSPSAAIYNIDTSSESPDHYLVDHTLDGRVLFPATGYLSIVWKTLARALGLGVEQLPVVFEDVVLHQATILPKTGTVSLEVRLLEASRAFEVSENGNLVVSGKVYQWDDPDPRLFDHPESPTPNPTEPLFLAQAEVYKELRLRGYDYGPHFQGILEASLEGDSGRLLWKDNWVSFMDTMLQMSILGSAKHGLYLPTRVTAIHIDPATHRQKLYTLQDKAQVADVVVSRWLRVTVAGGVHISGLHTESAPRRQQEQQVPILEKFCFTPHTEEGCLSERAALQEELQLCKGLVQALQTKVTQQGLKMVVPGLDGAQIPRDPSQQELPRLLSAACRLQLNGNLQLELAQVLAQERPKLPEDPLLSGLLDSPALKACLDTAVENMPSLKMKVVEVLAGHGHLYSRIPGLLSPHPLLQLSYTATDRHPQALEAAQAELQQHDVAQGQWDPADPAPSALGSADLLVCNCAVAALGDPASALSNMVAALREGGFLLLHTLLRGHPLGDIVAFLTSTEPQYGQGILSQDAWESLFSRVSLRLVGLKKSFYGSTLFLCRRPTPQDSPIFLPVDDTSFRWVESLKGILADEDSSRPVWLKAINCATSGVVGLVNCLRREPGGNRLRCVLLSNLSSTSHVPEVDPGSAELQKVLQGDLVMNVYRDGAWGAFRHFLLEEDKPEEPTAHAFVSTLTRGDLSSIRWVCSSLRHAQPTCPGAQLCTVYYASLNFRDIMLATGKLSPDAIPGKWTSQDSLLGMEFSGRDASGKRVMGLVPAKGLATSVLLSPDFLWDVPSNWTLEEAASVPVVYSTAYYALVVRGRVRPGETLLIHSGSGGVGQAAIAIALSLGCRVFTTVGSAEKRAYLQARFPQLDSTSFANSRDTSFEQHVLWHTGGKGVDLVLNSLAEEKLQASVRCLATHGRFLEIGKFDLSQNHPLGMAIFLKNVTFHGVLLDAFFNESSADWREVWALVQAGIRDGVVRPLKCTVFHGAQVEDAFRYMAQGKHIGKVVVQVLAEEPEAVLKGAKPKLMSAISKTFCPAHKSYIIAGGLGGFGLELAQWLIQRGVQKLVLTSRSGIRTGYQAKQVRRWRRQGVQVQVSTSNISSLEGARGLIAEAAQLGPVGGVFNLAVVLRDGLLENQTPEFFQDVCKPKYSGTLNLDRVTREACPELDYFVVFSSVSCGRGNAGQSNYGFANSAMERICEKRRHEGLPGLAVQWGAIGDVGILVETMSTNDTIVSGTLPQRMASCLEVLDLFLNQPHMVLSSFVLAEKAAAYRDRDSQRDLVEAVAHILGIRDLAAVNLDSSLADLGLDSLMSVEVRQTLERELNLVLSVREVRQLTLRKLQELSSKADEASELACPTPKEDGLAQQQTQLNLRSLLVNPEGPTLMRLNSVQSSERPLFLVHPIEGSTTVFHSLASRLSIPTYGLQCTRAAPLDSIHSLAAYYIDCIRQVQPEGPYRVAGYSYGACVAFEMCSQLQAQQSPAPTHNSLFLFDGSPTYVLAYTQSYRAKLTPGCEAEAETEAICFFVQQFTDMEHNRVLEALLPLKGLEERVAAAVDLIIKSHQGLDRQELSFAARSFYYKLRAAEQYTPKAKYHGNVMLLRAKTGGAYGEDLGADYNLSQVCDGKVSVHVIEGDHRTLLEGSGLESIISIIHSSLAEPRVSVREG
T1 sequence (P49327 whole entry): as the sequence (P49327 whole entry, the tested form may be a part) above

SMILES	inhibition at 10 µM [1]	IC50 [1]	IC50 [2]	pIC50 [3]	IC50 [4]
N#Cc1ccc(-c2ccc(C3=NC4(CCCC4)C(=O)N3C[C@@H]3CCN(C(=O)C4CC4)C3)cc2)cc1 [compound 1, 4′-(3-{[(3R)-1-(Cyclopropylcarbonyl)pyrrolidin-3-yl]methyl}-4-oxo-1,3-diazaspiro[4.4]non-1-en-2-yl)biphenyl-4-carbonitrile]	93%	575 nM	1120 nM	6.12	> 10000 nM
Cn1ncc2ccc(-c3ccc(C4=NC5(CC5)C(=O)N4C[C@@H]4CCN(C(=O)C5CC5)C4)cc3)cc21 [compound 27, 6-{[(3R)-1-(Cyclopropylcarbonyl)pyrrolidin-3-yl]methyl}-5-[4-(1-methyl-1H-indazol-6-yl)phenyl]-4,6-diazaspiro[2.4]hept-4-en-7-one]	100%	70.8 nM	251 nM	6.92	> 10000 nM
Cc1ccc(-c2ccc(C3=NC4(CC4)C(=O)N3C[C@@H]3CCN(C(=O)C4CC4)C3)cc2)cc1 [compound 100, 6-{[(3R)-1-(Cyclopropylcarbonyl)pyrrolidin-3-yl]methyl}-5-(4′-methylbiphenyl-4-yl)-4,6-diazaspiro[2.4]hept-4-en-7-one]	110%	74.1 nM	776 nM	6.68	> 10000 nM
CN1CCC2(CC1)N=C(c1ccc(-c3ccc4[nH]ccc4c3)cc1)N(C[C@@H]1CCN(C(=O)C3CC3)C1)C2=O [compound 81, (R)-2-(4-(1H-Indol-5-yl)phenyl)-3-((1-(cyclopropanecarbonyl)pyrrolidin-3-yl)methyl)-8-methy-1,3,8-triazaspiro[4.5]dec-1-en-4-one]	109%	91.2 nM	102 nM	6.73	> 6170 nM
O=C(C1CC1)N1CC[C@@H](CN2C(=O)C3(CCCC3)N=C2c2ccc(-c3ccc4cc[nH]c4c3)cc2)C1 [compound 33, 3-{[(3R)-1-(Cyclopropylcarbonyl)pyrrolidin-3-yl]methyl}-2-[4-(1H-indol-6-yl)phenyl]-1,3-diazaspiro[4.4]non-1-en-4-one]	109%	25.7 nM	251 nM	7.25	> 10000 nM
O=C(C1CC1)N1CC[C@@H](CN2C(=O)C3(CCCC3)N=C2c2ccc(-c3ccc4ncccc4c3)cc2)C1 [compound 11, 3-{[(3R)-1-(Cyclopropylcarbonyl)pyrrolidin-3-yl]methyl}-2-(4-quinolin-6-ylphenyl)-1,3-diazaspiro[4.4]non-1-en-4-one]	82.2%	933 nM	~3020 nM	5.69	> 10000 nM
O=C(C1CC1)N1CC[C@@H](CN2C(=O)C3(CC3)N=C2c2ccc(-c3ccc(Cl)cc3)cc2)C1 [compound 114, 5-(4′-Chlorobiphenyl-4-yl)-6-{[(3R)-1-(cyclopropylcarbonyl)pyrrolidin-3-yl]methyl}-4,6-diazaspiro[2.4]hept-4-en-7-one]	107%	75.9 nM	~832 nM	6.63	> 10000 nM
Cc1cc(-c2ccc3sc(C)c(C)c3c2)ccc1C1=NC2(CC2)C(=O)N1C[C@@H]1CCN(C(=O)C2CC2)C1 [compound 283, (R)-6-((1-(cyclopropanecarbonyl)pyrrolidin-3-yl)methyl)-5-(4-(2,3-dimethylbenzo[b]thiophen-5-yl)-2-methylphenyl)-4,6-diazaspiro[2.4]hept-4-en-7-one]	112%	41.7 nM	~1860 nM	7.03	> 10000 nM
COCCN1CCC2(CC1)N=C(c1ccc(-c3ccc4[nH]ccc4c3)cc1)N(CC1CN(C(=O)C3CC3)C1)C2=O [compound 755, 3-{[1-(Cyclopropylcarbonyl)azetidin-3-yl]methyl}-2-[4-(1H-indol-5-yl)phenyl]-8-triazaspiro[4.5]dec-1-en-4-one]	107%	229 nM	~316 nM	6.20	> 6170 nM
O=C(C1CC1)N1CCC(CN2C(=O)C3(CC3)N=C2c2ccc(-c3ccc4cnccc4c3)cc2)CC1 [compound 20, 6-{[1-(Cyclopropylcarbonyl)piperidin-4-yl]methyl}-5-(4-isoquinolin-6-ylphenyl)-4,6-diazaspiro[2.4]hept-4-en-7-one]	101%	158 nM	646 nM	6.17	8130 nM
COCc1nn(C)c2ccc(-c3ccc(C4=NC5(CC5)C(=O)N4CC4CN(C(=O)C5CC5)C4)c(F)c3)cc12 [compound 608, 6-{[1-(Cyclopropylcarbonyl)azetidin-3-yl]methyl}-5-{2-fluoro-4-[3-(methoxymethyl)-1-methyl-01H-indazol-5-yl]phenyl}-4,6-diazaspiro[2.4]hept-4-en-7-one]	98%	148 nM	372 nM	5.99	> 10000 nM
Cc1cc(-c2ccc3sccc3c2)ccc1C1=NC2(CC2)C(=O)N1C[C@@H]1CCN(C(=O)C2CC2)C1 [compound 279, (R)-5-(4-(benzo[d]thiophen-5-yl)-2-methylphenyl)-6-((1-(cyclopropanecarbonyl)pyrrolidin-3-yl)methyl)-4,6-diazaspiro[2.4]hept-4-en-7-one]	107%	28.2 nM	407 nM	7.35	> 10000 nM
Cc1cc2cc(-c3ccc(C4=NC5(CC5)C(=O)N4CC4CN(C(=O)C5CC5)C4)c(C)c3)ccc2o1 [compound 289, 6-((1-(cyclopropanecarbonyl)azetidin-3-yl)methyl)-5-(2-methyl-4-(2-methylbenzofuran-5-yl)phenyl)-4,6-diazspiro[2.4]hept-4-en-7-one]	102%	97.7 nM	1120 nM	6.49	> 10000 nM
CC(C)C(=O)N1CCC2(CC1)N=C(c1ccc(-c3ccc4[nH]ccc4c3)cc1)N(CC1CN(C(=O)C3CC3)C1)C2=O [compound 753, 3-{[1-(Cyclopropylcarbonyl)azetidin-3-yl]methyl}-2-[4-(1H-indol-5-yl)phenyl]-8-(2-methylpropanoyl)-1,3,8-triazaspiro[4.5]dec-1-en-4-one]	107%	135 nM	~245 nM	6.19	> 10000 nM
O=C(C1CC1)N1CC[C@@H](CN2C(=O)C3(CCCC3)N=C2c2ccc(-c3ccc4[nH]ccc4c3)cc2)C1 [compound 4, 3-{[(3R)-1-(Cyclopropylcarbonyl)pyrrolidin-3-yl]methyl}-2-[4-(1H-indol-5-yl)phenyl]-1,3-diazaspiro[4.4]non-1-en-4-one]	103%	33.9 nM	58.9 nM	7.34	5130 nM
O=C(C1CC1)N1CCC(CN2C(=O)C3(CC3)N=C2c2ccc(-c3ccc4[nH]ncc4c3)cc2)CC1 [compound 29, 6-{[1-(Cyclopropylcarbonyl)piperidin-4-yl]methyl}-5-[4-(1H-indazol-5-yl)phenyl]-4,6-diazaspiro[2.4]hept-4-en-7-one]	81.7%	933 nM	3390 nM	5.63	> 10000 nM
O=C(C1CC1)N1CC[C@@H](CN2C(=O)C3(CCCC3)N=C2c2ccc(-c3cccc4cnccc34)cc2)C1 [compound 67, 3-{[(3R)-1-(Cyclopropylcarbonyl)pyrrolidin-3-yl]methyl}-2-(4-isoquinolin-5-ylphenyl)-1,3-diazaspiro[4.4]non-1-en-4-one]	100%	282 nM	1620 nM	5.81	> 10000 nM
Cc1cc2cc(-c3ccc(C4=NC5(CC5)C(=O)N4C[C@@H]4CCN(C(=O)C5CC5)C4)c(C)c3)ccc2s1 [compound 281, (R)-6-((1-(cyclopropanecarbonyl)pyrrolidin-3-yl)methyl)-5-(2-methyl-4-(2-methylbenzo[b]thiophen-5-yl)phenyl)-4,6-diazaspiro[2.4]hept-4-en-7-one]	114%	44.7 nM	~813 nM	6.96	> 6170 nM
Cc1cc2cc(-c3ccc(C4=NC5(CC5)C(=O)N4C[C@@H]4CCN(C(=O)C5CC5)C4)c(C)c3)ccc2o1 [compound 280, (R)-6-((1-(cyclopropanecarbonyl)pyrrolidin-3-yl)methyl)-5-(2-methyl-4-(2-methylbenzofuran-5-yl)phenyl)-4,6-diazaspiro[2.4]hept-4-en-7-one]	109%	30.2 nM	~1950 nM	6.90	> 10000 nM
O=C(C1CC1)N1CC[C@@H](CN2C(=O)C3(CCN(Cc4ccccc4)CC3)N=C2c2ccc(-c3ccc4[nH]ccc4c3)cc2)C1 [compound 63, (R)-2-(4-(1H-Indol-5-yl)phenyl)-8-benzyl-3-((1-(cyclopropanecarbonyl)pyrrolidin-3-yl)methyl)-1,3,8-triazaspiro[4.5]dec-1-en-4-one]	115%	74.1 nM	75.9 nM	7.07	> 10000 nM

Reference: US10077261B2, “Imidazolin-5-one derivative useful as FASN inhibitors for the treatment of cancer” (Janssen Pharmaceutica NV, priority 2012, dated 2018)
